# Experiments:
# S100A10 = S100A10 expression under chemotherapeutic treatment (qRT-PCR, western blot); assay type: cell-based, human; settings: HCC cells treated with chemotherapeutic agents
# Method: Total RNA was extracted using the TRIZOL Reagent (Life Technologies). cDNA was synthesized by reverse transcription (Roche). SYRB Green PCR Master Mix (Applied Biosystems) and Applied Biosystems Quant Studio 5 Real-time PCR System were used for qRT-PCR analysis. All qRT-PCR reactions were tested in triplicates.
# (§1) Quantified protein lysates were resolved on SDS-PAGE, transferred onto a polyvinylidenedifluoride (PVDF) membrane (Bio-Rad), and then blocked with 5% non-fat milk in Tris-buffered saline-Tween 20 (TBST) for 1 h at room temperature. The blocked membrane was then incubated with primary antibody diluted in 5% bovine serum albumin in TBST at 4° C. overnight.
# [1] = system: PLC-S100A10 xenograft tumors; test: Chemoresistance / treatment in subcutaneous xenograft model; assay type: in vivo; settings: nude mice
# Method: All animal experiments were conducted and approved by the University of Hong Kong Committee on the Use of Live Animals in Teaching and Research (CULATR). The frequency of CSCs with tumor initiation capabilities was evaluated using limiting dilution assay. The BALB/c nude mouse xenograft model was used to evaluate tumorigenicity and chemoresistant ability in vivo. Nude mice were intrasplenically injected with HCC cells to assess the liver metastatic capacity in vivo. After surgery, mice recovered from anesthesia in a cage under a heater. Analgesia was provided to the nude mice during the first postoperative week. Tail vein injection of luciferase-labelled MHCC-97L cells in NOD SCID mice was used to assess lung metastatic ability. After mice were killed, the tumor tissues, livers, spleens, and lungs were excised and fixed in 4% paraformaldehyde overnight. Thereafter, fixed tissues were embedded in paraffin for further studies.
# For chemoresistance in xenograft model, subcutaneous xenografts in nude mice were established with PLC/PRF/5 or MHCC97L cells. Treatment was started once the size of the xenograft reached ˜5 mm in diameter. The mice were randomly assigned into different groups, each consisting of at least 5 mice. Sorafenib at 10 mg/kg was administered daily through oral gavage. Mouse IgG antibody or anti-S100A10 antibody was administered at 10 μg once every 3 days by intraperitoneal injection.
# HCC cells (PLC, 97L) [2] = test: Apoptotic assay (annexin-V staining, flow cytometry); assay type: cell-based, human; settings: PLC and 97L, 48 h
# Method: The apoptotic assay was determined by flow cytometry using annexin-V staining.
# HCC cells (PLC, 97L) [3] = test: Chemotherapy-induced cytotoxicity / chemoresistance (XTT assay); assay type: cell-based, human; settings: for cell viability of S100A10-OE cells versus controls on treatment: PLC and 97L
# HIF-1α = HIF-1α expression under chemotherapeutic treatment (western blot); assay type: cell-based, human; settings: HCC cells treated with chemotherapeutic agents
# Method: as §1
# HCC cells (PLC, 97L) [4] = test: Transwell migration and matrigel invasion assays (pretreated HCC cells); assay type: cell-based, human
# Method: Transwell migration and invasion assays were performed to evaluate cell motility (Corning, #353097 for migration, #354480 for invasion). Approximately 1×10^5 cells were seeded in the medium without FBS on transwell upper chambers, and the lower chamber was supplied with medium with 10% FBS, with the indicated conditional medium, or EVs. The cells that migrated and invaded to the lower membrane surface were stained using crystal violet and then counted under microscopy.
# (§2) HCC cells were seeded in 6-well plate and subjected to 2 μg EVs treatment for 48 hours one day after seeding. Then the cells were used for functional studies or western blotting. For treating with neutralizing antibodies, EVs were incubated with PBS (1:10 volume/volume), IgG antibody (1:10 volume/volume) (Santa Cruz, sc-2025), or anti-S100A10 neutralizing antibody (1:10 volume/volume) (Santa Cruz, sc-81153) before they were applied in in vitro or in vivo assays. For S100A10 NA or ITGAV treatment before EVs isolation, 20 ug S100A10 NA or IgG were pre-incubate with 1,000 million cells and then seed in medium with 10% EVs free FBS. Then the EVs were collected after 48 hours.
# PLC cells [5] = test: Focus formation assay; assay type: cell-based, human
# Method: Focus formation assay was used to assess anchorage-dependent growth. In brief, 1,000 cells were seeded in each well of six-well plate for approximately 2-3 weeks. Surviving colonies were stained and counted using crystal violet (Sigma-Aldrich).
# as §2
# PLC-Vec/S100A10 cells = test: XTT assay for cell proliferation with gefitinib; assay type: cell-based, human
# PLC cells [6] = test: Sphere formation assay; assay type: cell-based, human
# Method: A total of 1,000 cells were cultured in 0.25% methyl cellulose (Sigma-Aldrich) supplemented DMEM/F12 medium (Life Technologies) with 20 ng/mL EGF (Life Technologies), 10 ng/mL basic FGF (Life Technologies), B27 (1:50, GIBCO), and 4 μg/mL insulin (BIOIND, Kibbutz Beit Haemek, Israel) in 24-well plates, which were coated with poly HEMA (Sigma-Aldrich). The cells were replenished with 30 μL supplementary medium every other day.
# as §2
# [7] = system: MMP2, fibronectin and EGF on EVs; test: Western blotting of MMP2, fibronectin, EGF and S100A10 in EVs and cells; assay type: cell-based, human; settings: PLC-S100A10 cells treated 48 hours, compared with control GRADSP peptides (RAD)
# Method: For EVs isolation from cell culture supernatants, HCC cells were cultured in medium with 10% EV-depleted FBS, which was prepared by 100,000× g centrifugation overnight (≥12 h) at 4° C. (Himac, CP100NX Ultracentrifuges). EVs were purified by differential centrifugation after the cell culture supernatant were collected. Briefly, cell culture supernatants were centrifuged at 2000×g for 15 min to remove cell debris and dead cells. Then the supernatant was centrifugated at 20000×g for 30 min at 4° C. to remove microvesicles. Then the supernatant was first passed through 0.22 μm filter followed by ultracentrifugation at 100,000×g for 2 h at 4° C. to collect EVs. The EVs were then washed with PBS and collected by ultracentrifugation at 100,000×g for another 2 h at 4° C. HCC patients' or healthy donors' plasma derived EVs were purified by differential centrifugation. The plasma was first centrifuged at 4000 g for 15 min to obtain cell-free plasma. Then, 500 μL of the obtained plasma was toped-up to 1 mL and then centrifuged at 20,000 g for 1 hour (Himac, CP100NX Ultracentrifuges). The collected supernatants were then centrifuged at 100,000 g for 2 h at 4° C. […]
# Quantified protein lysates were resolved on SDS-PAGE, transferred onto a polyvinylidenedifluoride (PVDF) membrane (Bio-Rad), and then blocked with 5% non-fat milk in Tris-buffered saline-Tween 20 (TBST) for 1 h at room temperature. […]
Compound,expression of S100A10 (S100A10),xenograft tumor growth in PLC-S100A10 group versus control group when treated [1],"apoptotic indices of S100A10-OE cells versus controls on treatment (HCC cells (PLC, 97L) [2])","cell viability of S100A10-OE cells versus controls on treatment (HCC cells (PLC, 97L) [3])",expression of HIF-1α (HIF-1α),also measured
"O=c1[nH]cc(F)c(=O)[nH]1 [5-FU, 5-flurouracil]",upregulated,significantly larger,lower,significantly higher,,
N.N.[Cl][Pt][Cl] [cisplatin],upregulated,significantly larger,lower,significantly higher,upregulated,
COc1cc2ncnc(Nc3ccc(F)c(Cl)c3)c2cc1OCCCN1CCOCC1 [gefitinib],,,,,,"invasion ability of S100A10-OE cells (HCC cells (PLC, 97L) [4]): significantly suppressed; migration ability of S100A10-OE cells (HCC cells (PLC, 97L) [4]): significantly suppressed; chemoresistance of S100A10-OE cells (HCC cells (PLC, 97L) [3]; PLC S100A10-OE cells, sorafenib): significantly suppressed; focus formation of S100A10-OE cells (PLC cells [5]): significantly suppressed; sensitivity of S100A10-OE cells versus Vec cells (cell proliferation) (PLC-Vec/S100A10 cells): more sensitive; sphere formation of S100A10-OE cells (PLC cells [6]): significantly suppressed"
CNC(=O)c1cc(Oc2ccc(NC(=O)Nc3ccc(Cl)c(C(F)(F)F)c3)cc2)ccn1 [sorafenib],upregulated,significantly larger,lower,significantly higher,upregulated,
GRGDSP [RGD peptide],,,,,,"S100A10 on EVs [7]: no changes; levels of MMP2, fibronectin and EGF on EVs [7]: greatly reduced"

# Reference: patent publication US20240094211A1, “COMPOSITIONS AND METHODS TARGETING S100A10 FOR THE TREATMENT AND DIAGNOSIS OF LIVER CANCER” (The University of Hong Kong, priority 2022, published 2024)
